Columns and labels:
Test in all cases: Post-emergence test experiment (greenhouse pot, spray at 2-3 leaf stage)
Assay type in all cases: in vivo
Settings in all cases: 1000 g/ha; post-emergence spray at 2-3 leaf stage; assessed after 3 weeks; fresh weight inhibition rate
Abutilon theophrasti = test system: Abutilon theophrasti
Procedure, shortened: (§1)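 Activity graded levels 0-5 by fresh-weight inhibition (level 5 above 85%, level 0 below 5%), assessed 3 weeks after treatment. Plants grown in greenhouse pots were sprayed post-emergence at 2-3 leaves using acetone/tween-80 solutions with methyl oleate synergist (1.5 L/ha).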

Digitaria sanguinalis = test system: Digitaria sanguinalis
Procedure, shortened: as §1

Echinochloa crusgalli = test system: Echinochloa crusgalli
Procedure, shortened: as §1

Galium spurium = test system: Galium spurium
Procedure, shortened: as §1

Monochoria vaginalis = test system: Monochoria vaginalis
Procedure, shortened: as §1

SMILES	Activity level (growth inhibition rate) Abutilon theophrasti (Abutilon theophrasti)	Activity level (growth inhibition rate) Digitaria sanguinalis (Digitaria sanguinalis)	Activity level (growth inhibition rate) Echinochloa crusgalli (Echinochloa crusgalli)	Activity level (growth inhibition rate) Galium spurium (Galium spurium)	Activity level (growth inhibition rate) Monochoria Vaginalis (Monochoria vaginalis)
CC(Oc1nc(F)c(Cl)c(N)c1Cl)C(=O)OCC1C=C2C=CC=CC2N1 (stereo not shown) [Compound 169]	5 (Level 5: the growth inhibition rate is greater than 85%)	5 (Level 5: the growth inhibition rate is greater than 85%)	5 (Level 5: the growth inhibition rate is greater than 85%)	5 (Level 5: the growth inhibition rate is greater than 85%)	5 (Level 5: the growth inhibition rate is greater than 85%)
CC(Oc1nc(Cl)c(C2CC2)c(N)c1Cl)C(=O)OCc1ccccc1 (stereo not shown) [Compound 10]	5 (Level 5: the growth inhibition rate is greater than 85%)	5 (Level 5: the growth inhibition rate is greater than 85%)	5 (Level 5: the growth inhibition rate is greater than 85%)	5 (Level 5: the growth inhibition rate is greater than 85%)	5 (Level 5: the growth inhibition rate is greater than 85%)
CC(Oc1nc(F)c(Cl)c(N)c1Cl)C(=O)SCc1cccnc1 (stereo not shown) [Compound 237]	5 (Level 5: the growth inhibition rate is greater than 85%)	5 (Level 5: the growth inhibition rate is greater than 85%)	5 (Level 5: the growth inhibition rate is greater than 85%)	5 (Level 5: the growth inhibition rate is greater than 85%)	5 (Level 5: the growth inhibition rate is greater than 85%)
CC(Oc1nc(F)c(Cl)c(N)c1Cl)C(=O)OCc1ccc2ncsc2c1 (stereo not shown) [Compound 180]	5 (Level 5: the growth inhibition rate is greater than 85%)	5 (Level 5: the growth inhibition rate is greater than 85%)	5 (Level 5: the growth inhibition rate is greater than 85%)	5 (Level 5: the growth inhibition rate is greater than 85%)	5 (Level 5: the growth inhibition rate is greater than 85%)
CC(Oc1nc(F)c(Cl)c(N)c1Cl)C(=O)SCc1ccc(Br)cc1 (stereo not shown) [Compound 231]	5 (Level 5: the growth inhibition rate is greater than 85%)	5 (Level 5: the growth inhibition rate is greater than 85%)	5 (Level 5: the growth inhibition rate is greater than 85%)	5 (Level 5: the growth inhibition rate is greater than 85%)	5 (Level 5: the growth inhibition rate is greater than 85%)
CC(Oc1nc(F)c(Cl)c(N)c1Cl)C(=O)OCc1cncnc1 (stereo not shown) [Compound 124]	5 (Level 5: the growth inhibition rate is greater than 85%)	5 (Level 5: the growth inhibition rate is greater than 85%)	5 (Level 5: the growth inhibition rate is greater than 85%)	5 (Level 5: the growth inhibition rate is greater than 85%)	5 (Level 5: the growth inhibition rate is greater than 85%)
CC(Oc1nc(F)c(Cl)c(N)c1Cl)C(=O)SCc1nccs1 (stereo not shown) [Compound 156]	5 (Level 5: the growth inhibition rate is greater than 85%)	5 (Level 5: the growth inhibition rate is greater than 85%)	5 (Level 5: the growth inhibition rate is greater than 85%)	5 (Level 5: the growth inhibition rate is greater than 85%)	5 (Level 5: the growth inhibition rate is greater than 85%)
CC(Oc1nc(F)c(Cl)c(N)c1Cl)C(=O)SCc1ccccn1 (stereo not shown) [Compound 235]	5 (Level 5: the growth inhibition rate is greater than 85%)	5 (Level 5: the growth inhibition rate is greater than 85%)	5 (Level 5: the growth inhibition rate is greater than 85%)	5 (Level 5: the growth inhibition rate is greater than 85%)	5 (Level 5: the growth inhibition rate is greater than 85%)
CC(Oc1nc(F)c(Cl)c(N)c1Cl)C(=O)SCc1ccsn1 (stereo not shown) [Compound 161]	5 (Level 5: the growth inhibition rate is greater than 85%)	5 (Level 5: the growth inhibition rate is greater than 85%)	5 (Level 5: the growth inhibition rate is greater than 85%)	5 (Level 5: the growth inhibition rate is greater than 85%)	5 (Level 5: the growth inhibition rate is greater than 85%)
CC(Oc1nc(F)c(Cl)c(N)c1Cl)C(=O)OCc1ccc(F)cc1 (stereo not shown) [Compound 199]	5 (Level 5: the growth inhibition rate is greater than 85%)	5 (Level 5: the growth inhibition rate is greater than 85%)	5 (Level 5: the growth inhibition rate is greater than 85%)	5 (Level 5: the growth inhibition rate is greater than 85%)	5 (Level 5: the growth inhibition rate is greater than 85%)
CCCn1cc(CCOC(=O)C(C)Oc2nc(F)c(Cl)c(N)c2Cl)cn1 (stereo not shown) [Compound 133]	5 (Level 5: the growth inhibition rate is greater than 85%)	5 (Level 5: the growth inhibition rate is greater than 85%)	5 (Level 5: the growth inhibition rate is greater than 85%)	5 (Level 5: the growth inhibition rate is greater than 85%)	5 (Level 5: the growth inhibition rate is greater than 85%)
CC(Oc1nc(F)c(Cl)c(N)c1Cl)C(=O)OCc1cc2ccccc2s1 (stereo not shown) [Compound 177]	5 (Level 5: the growth inhibition rate is greater than 85%)	5 (Level 5: the growth inhibition rate is greater than 85%)	5 (Level 5: the growth inhibition rate is greater than 85%)	5 (Level 5: the growth inhibition rate is greater than 85%)	5 (Level 5: the growth inhibition rate is greater than 85%)
CC(=O)Cc1ccc(COC(=O)C(C)Oc2nc(F)c(Cl)c(N)c2Cl)cc1 (stereo not shown) [Compound 99]	5 (Level 5: the growth inhibition rate is greater than 85%)	5 (Level 5: the growth inhibition rate is greater than 85%)	5 (Level 5: the growth inhibition rate is greater than 85%)	5 (Level 5: the growth inhibition rate is greater than 85%)	5 (Level 5: the growth inhibition rate is greater than 85%)
CC(Oc1nc(F)c(Cl)c(N)c1Cl)C(=O)OCc1ccc(C(C)C)cc1 (stereo not shown) [Compound 72]	5 (Level 5: the growth inhibition rate is greater than 85%)	5 (Level 5: the growth inhibition rate is greater than 85%)	5 (Level 5: the growth inhibition rate is greater than 85%)	5 (Level 5: the growth inhibition rate is greater than 85%)	5 (Level 5: the growth inhibition rate is greater than 85%)
CC(Oc1nc(F)c(Cl)c(N)c1Cl)C(=O)SCc1ccccc1C#N (stereo not shown) [Compound 224]	5 (Level 5: the growth inhibition rate is greater than 85%)	5 (Level 5: the growth inhibition rate is greater than 85%)	5 (Level 5: the growth inhibition rate is greater than 85%)	5 (Level 5: the growth inhibition rate is greater than 85%)	5 (Level 5: the growth inhibition rate is greater than 85%)
CC(Oc1nc(F)c(Cl)c(N)c1Cl)C(=O)SCc1ccc2cc(Cl)ccc2c1 (stereo not shown) [Compound 182]	5 (Level 5: the growth inhibition rate is greater than 85%)	5 (Level 5: the growth inhibition rate is greater than 85%)	5 (Level 5: the growth inhibition rate is greater than 85%)	5 (Level 5: the growth inhibition rate is greater than 85%)	5 (Level 5: the growth inhibition rate is greater than 85%)
CC(Oc1nc(F)c(Cl)c(N)c1Cl)C(=O)OCc1cnn(C)c1 (stereo not shown) [Compound 217]	5 (Level 5: the growth inhibition rate is greater than 85%)	5 (Level 5: the growth inhibition rate is greater than 85%)	5 (Level 5: the growth inhibition rate is greater than 85%)	5 (Level 5: the growth inhibition rate is greater than 85%)	5 (Level 5: the growth inhibition rate is greater than 85%)

Source: patent publication US12049450B2, “Pyridyloxy-carboxylate derivative and preparation method therefor, herbicidal composition, and use” (Qingdao Kingagroot Chemical Compound Co., Ltd., priority 2018, dated 2024)
